# Source: PMC1664607 (PLoS Medicine, 2006)
# Experiments:
# [1] = tested on: M. tuberculosis ATCC 35838 (H37Rv-R-R); assay: microbe, parasite or virus in culture; assay type: cell-based; details: Mycobacterium tuberculosis, 336 h
# [2] = tested on: M. tuberculosis ATCC 35812 (Kurono); assay: Susceptibility testing (agar dilution MIC); assay type: cell-based; details: Mycobacterium tuberculosis, ATCC35812, 336 h; 7H11 agar, 37 °C, 14 d; read-out: MIC
# [3] = mouse, in vivo, po
# [4] = tested on: M. tuberculosis ATCC 35820 (H37Rv-S-R); assay: microbe, parasite or virus in culture; assay type: cell-based; details: Mycobacterium tuberculosis, 336 h
# [5] = tested on: M. tuberculosis ATCC 35837 (H37Rv-E-R); assay: microbe, parasite or virus in culture; assay type: cell-based; details: Mycobacterium tuberculosis, 336 h
# [6] = tested on: M. tuberculosis ATCC 25618 (H37Rv); assay: Susceptibility testing (agar dilution MIC); assay type: cell-based; details: Mycobacterium tuberculosis, 336 h; 7H11 agar, 37 °C, 14 d; read-out: MIC
# M. tuberculosis Kurono = assay: Therapeutic efficacy in an experimental mouse model of chronic TB; assay type: in vivo, ICR mice; details: for Dose that could produce a CFU reduction of at least 95%: lung
# [7] = Plasma levels in an experimental mouse model of TB; details: in vivo, po
# [8] = tested on: clinically isolated M. tuberculosis; assay: microbe, parasite or virus in culture; assay type: cell-based; details: Mycobacterium tuberculosis; read-out: MIC90
# [9] = tested on: M. tuberculosis ATCC 35822 (H37Rv-H-R); assay: microbe, parasite or virus in culture; assay type: cell-based; details: Mycobacterium tuberculosis, 336 h
# S. typhimurium TA1537 = assay: Bacterial reverse mutation (BRM) test; assay type: cell-based; details: S9 mix −; positive control ACR 80 μg/plate
# Method: (§1) The BRM test was performed in accordance with OECD Guideline 471 using Salmonella tyiphimurium TA98, TA100, TA1535, and TA1537, and Escherichia coli WP2 uvrA [11]. Each bacterial strain was pre-cultured at 37 °C for 18 h using a nutrient broth (Nissui Pharmaceutical; http://www.nissui-pharm.co.jp/index_e.html). After adjustment to 2.4 at OD660 nm, each bacterial suspension was added to a test tube containing the designated compound in the absence or presence of rat liver microsome (S9) mix. After a 20-min incubation at 37 °C, top agar was added to each test tube and the contents were poured into minimum essential medium (Oriental Yeast; http://www.oyc.co.jp/e/index.htm). The number of revertants was counted 48 h after incubation at 37 °C.
# CYP2C8/9 = assay: Tolubutamide methylhydroxylation in human liver microsomes; assay type: in vitro ADME; details: 100 μM; 400 μM tolbutamide
# S. typhimurium TA98 = assay: Bacterial reverse mutation (BRM) test; assay type: cell-based; details: S9 mix −; positive control AF-2 0.1 μg/plate
# Method: as §1
# E. coli WP2 uvr A = assay: Bacterial reverse mutation (BRM) test; assay type: cell-based; details: S9 mix −; positive control AF-2 0.01 μg/plate
# Method: as §1
# S. typhimurium TA100 = assay: Bacterial reverse mutation (BRM) test; assay type: cell-based; details: S9 mix −; positive control AF-2 0.01 μg/plate
# Method: as §1
# S. typhimurium TA1535 = assay: Bacterial reverse mutation (BRM) test; assay type: cell-based; details: S9 mix −; positive control NaN3 0.5 μg/plate
# Method: as §1
structure (smiles),measurement,setting,value
"CO[C@H]1/C=C/O[C@@]2(C)Oc3c(C)c(O)c4c(O)c(c(/C=N/N5CCN(C)CC5)c(O)c4c3C2=O)NC(=O)/C(C)=C\C=C\[C@H](C)[C@H](O)[C@@H](C)[C@@H](O)[C@@H](C)[C@H](OC(C)=O)[C@@H]1C [RFP, rifampicin]",MIC,[1],> 100 µg/mL
same,MIC,[2],0.39 µg/mL
same,"Concentration, 0.5 h",[3],3330 ± 870 ng/mL
same,"Concentration, 1 h",[3],4490 ± 1040 ng/mL
same,"Concentration, 2 h",[3],4520 ± 1900 ng/mL
same,"Concentration, 4 h",[3],3820 ± 700 ng/mL
same,"Concentration, 6 h",[3],5100 ± 1630 ng/mL
same,"Concentration, 16 h",[3],660 ± 260 ng/mL
same,MIC,[4],0.78 µg/mL
same,MIC,[5],0.2 µg/mL
same,MIC,[6],0.78 µg/mL
same,Log of Viable Counts/Lung,"M. tuberculosis Kurono; 1.25 mg/kg once daily for 28 d (4 weeks), mean ± S.D., n = 5","7.409 ± 0.201^c:NS, d:NS"
same,Log of Viable Counts/Lung,"M. tuberculosis Kurono; 10 mg/kg once daily for 28 d (4 weeks), mean ± S.D., n = 5","3.972 ± 0.596^c:**, d:**"
same,Log of Viable Counts/Lung,"M. tuberculosis Kurono; 20 mg/kg once daily for 28 d (4 weeks), mean ± S.D., n = 5","3.279 ± 0.330^c:**, d:**"
same,Dose that could produce a CFU reduction of at least 95%,M. tuberculosis Kurono; once daily for 28 d,3.5 mg/kg
same,AUC(0-t),[7]; 5 mg/kg,48.2 µg·h/mL
same,Cmax,[7]; 5 mg/kg,5100 ng/mL
same,Tmax,[7]; 5 mg/kg,6 h
same,MIC90,[8],0.288 µg/mL
same,MIC,[9],0.39 µg/mL
CCC1Cn2cc([N+](=O)[O-])nc2O1 (centres unmarked) [CGI-17341],MIC,[1],0.05 µg/mL
same,MIC,[2],0.2 µg/mL
same,MIC,[4],0.2 µg/mL
same,MIC,[5],0.2 µg/mL
same,MIC,[6],0.2 µg/mL
same,MIC,[9],0.2 µg/mL
"Nc1c2ccccc2nc2ccccc12 [ACR, 9-aminoacridine]",Revertants/Plate,S. typhimurium TA1537,64 953 Revertants/Plate
"Nc1ccc(S(=O)(=O)Nc2ccnn2-c2ccccc2)cc1 [Sulfaphenazole, sulfaphenazole]",Percent of Control,CYP2C8/9,25.5% of Control
"NC(=O)c1cnccn1 [PZA, pyrazinamide]",Log of Viable Counts/Lung,"M. tuberculosis Kurono; 40 mg/kg, 672 h","6.942 ± 0.205^a:NS, b:NS"
same,Log of Viable Counts/Lung,"M. tuberculosis Kurono; 80 mg/kg, 672 h","6.168 ± 0.774^a:*, b:NS"
same,Log of Viable Counts/Lung,"M. tuberculosis Kurono; 160 mg/kg, 672 h","5.823 ± 0.628^a:**, b:*"
same,Log of Viable Counts/Lung,"M. tuberculosis Kurono; 320 mg/kg, 672 h","5.009 ± 0.539^a:**, b:**"
same,Dose that could produce a CFU reduction of at least 95%,M. tuberculosis Kurono; once daily for 28 d,160 mg/kg
same,Dose groups that showed a significant decrease in pulmonary viable bacterial count when compared with the vehicle control group,M. tuberculosis Kurono; once daily for 28 d,"80, 160, and 320 mg/kg"
same,AUC(0-t),[7],197 µg·h/mL
same,concentration at 0.083 h,[7],49600 ± 11200 ng/mL
same,concentration at 0.25 h,[7],59100 ± 14100 ng/mL
same,concentration at 0.5 h,[7],63200 ± 28900 ng/mL
same,concentration at 1 h,[7],60200 ± 18700 ng/mL
same,concentration at 2 h,[7],35500 ± 6450 ng/mL
same,concentration at 4 h,[7],18400 ± 3090 ng/mL
same,AUC(0-t),[7]; 100 mg/kg,198 µg·h/mL
same,Cmax,[7]; 100 mg/kg,63200 ng/mL
same,Tmax,[7]; 100 mg/kg,0.5 h
same,half-life,[7]; 100 mg/kg,1.1 h
"NC(=O)C(=Cc1ccc([N+](=O)[O-])o1)c1ccco1 [AF-2, 2-(2-furyl)-3-(5-nitro-2-furyl)acrylamide]",Revertants/Plate,S. typhimurium TA98,29 473 Revertants/Plate
same,Revertants/Plate,E. coli WP2 uvr A,30 225 Revertants/Plate
same,Revertants/Plate,S. typhimurium TA100,98 547 Revertants/Plate
"[N-]=[N+]=[N-].[Na+] [NaN3, sodium azide]",Revertants/Plate,S. typhimurium TA1535,6 174 Revertants/Plate
"O=c1c(O)c(-c2ccc(O)c(O)c2)oc2cc(O)cc(O)c12 [Quercetin, quercetin]",Percent of Control,CYP2C8/9,30.6% of Control
